According to ChEMBL document CHEMBL1126167, “Synthesis and evaluation of photoaffinity probes directed at lanosterol 14-demethylase (P-45014DM)” (Bioorg Med Chem Lett, 1992):

Key:
[1] = Photolysis at 264 nm in phosphate buffer; type: ADME; design: dose or concentration left out as unconfirmed
[2] = system: P45014DM; assay: Photolysis after effective incorporation into P45014DM at 313 nm in phosphate buffer; type: ADME; design: dose or concentration left out as unconfirmed; settings: compound incorporated into P45014DM
[3] = target: T1, Lanosterol 14-alpha demethylase (Homo sapiens, UniProt Q16850); assay: Binding affinity for cytochrome P450 14DM; design: species or system Saccharomyces cerevisiae
T1 sequence (Q16850 whole entry): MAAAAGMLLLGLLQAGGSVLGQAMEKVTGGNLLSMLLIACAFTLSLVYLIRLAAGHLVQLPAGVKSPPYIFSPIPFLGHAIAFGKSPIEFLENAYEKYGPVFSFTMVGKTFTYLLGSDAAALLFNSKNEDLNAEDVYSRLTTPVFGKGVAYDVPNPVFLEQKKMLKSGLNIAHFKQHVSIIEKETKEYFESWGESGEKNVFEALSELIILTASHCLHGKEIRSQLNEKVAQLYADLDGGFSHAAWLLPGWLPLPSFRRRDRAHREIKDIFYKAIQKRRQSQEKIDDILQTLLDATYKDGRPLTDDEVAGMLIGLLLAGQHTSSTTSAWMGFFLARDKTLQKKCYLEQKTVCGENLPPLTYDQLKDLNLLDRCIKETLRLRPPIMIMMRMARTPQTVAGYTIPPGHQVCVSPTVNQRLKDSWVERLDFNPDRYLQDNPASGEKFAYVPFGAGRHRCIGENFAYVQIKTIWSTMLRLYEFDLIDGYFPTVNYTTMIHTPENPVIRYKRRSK

[4] = Specific activity was determined; type: functional; settings: tested as the 3H-labelled form

half-life [1] [min] | half-life [2] [min] | Kd [3] [µM] | Compound | Activity [4] [mCi/M]
 |  | 15 | [N-]=[N+]=Nc1ccc(Cn2ccnc2)cc1 | 
 |  | 1.4 | [N-]=[N+]=Nc1ccc(C(O)Cn2ccnc2)cc1 (configuration not stated) | 26.4
 |  | 18 | [N-]=[N+]=Nc1ccc(C(=O)Cn2ccnc2)cc1 | 

More lines, now with the values behind:

Compound | half-life [1] [min] | half-life [2] [min] | Kd [3] [µM] | Activity [4] [mCi/M]
[3H]C(O)(Cn1ccnc1)c1ccc(N=[N+]=[N-])cc1 (configuration not stated) | 2.5 | 45 |  | 
[N-]=[N+]=Nc1ccc(-n2ccnc2)cc1 |  |  | 25 | 
